According to patent publication US20230085307A1, “PYRIDAZINONE COMPOUND AND HERBICIDE” (NISSAN CHEMICAL CORPORATION, priority 2019, published 2023):

How the values were obtained:
[1] = test system: late watergrass; test: Test Example 2: herbicidal activity, application during weed generation under submerged conditions (Table 17, symbol A); type: in vivo, late watergrass (Echinochloa oryzicola); conditions: AAH 320 g/ha; application during weed generation, submerged conditions
Method in brief: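 3-wk visual-criteria score after one water-surface dose. Emulsion formulation, water-diluted to set rate; applied at 1–2 leaf stage; alluvial soil, 4 cm standing water; seeds co-sown; greenhouse 25–30° C.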

[2] = test system: barnyard grass; test: Test Example 3: herbicidal effect by foliage application, Wagner pot (Table 18, symbol H); type: in vivo, barnyard grass (Echinochloa crus-galli); conditions: 320 g/ha
Method in brief: (§1)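 Plants were sown in alluvial soil held under 0.1–0.5 cm standing water and grown 14 days in a greenhouse at 25–30 °C. An emulsifiable formulation, water-diluted to the set dose, was then sprayed onto the foliage, and effects were scored three weeks later using previously defined criteria.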

[3] = test system: Chinese sprangletop; test: Test Example 3: herbicidal effect by foliage application, Wagner pot (Table 18, symbol D); type: in vivo, chinese sprangletop (Leptochloa chinensis); conditions: 320 g/ha
Method in brief: as §1

[4] = test system: southern crabgrass; test: Test Example 4: herbicidal effect by soil treatment (Table 19, symbol F); type: in vivo, southern crabgrass (Digitaria ciliaris); conditions: amount of applied herbicide 320 g/ha
Method in brief: (§2)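 In this soil treatment, the formulated compound reached the seeds only through the soil: seeds were buried about 1.5 cm deep in sterilized diluvial soil, then the diluted emulsion was sprayed over the surface. After three weeks at 25° C. to 30° C. in a greenhouse, effects were graded on criteria from an earlier test.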

[5] = test system: barnyard grass; test: Test Example 4: herbicidal effect by soil treatment (Table 19, symbol H); type: in vivo, barnyard grass (Echinochloa crus-galli); conditions: amount of applied herbicide 320 g/ha
Method in brief: as §2

[6] = test system: blackgrass; test: Test Example 4: herbicidal effect by soil treatment (Table 19, symbol J); type: in vivo, blackgrass (Alopecurus myosuroides); conditions: amount of applied herbicide 320 g/ha
Method in brief: as §2

[7] = test system: redroot pigweed; test: Test Example 4: herbicidal effect by soil treatment (Table 19, symbol N); type: in vivo, redroot pigweed (Amaranthus retroflexus); conditions: amount of applied herbicide 320 g/ha
Method in brief: as §2

[8] = test system: lambsquarters; test: Test Example 4: herbicidal effect by soil treatment (Table 19, symbol O); type: in vivo, lambsquarters (Chenopodium album); conditions: amount of applied herbicide 320 g/ha
Method in brief: as §2

[9] = test system: chickweed; test: Test Example 4: herbicidal effect by soil treatment (Table 19, symbol P); type: in vivo, common chickweed (Stellaria media); conditions: amount of applied herbicide 320 g/ha
Method in brief: as §2

[10] = test system: barnyard grass; test: Test Example 5: herbicidal effect by foliage application, plastic box (Table 20, symbol H); type: in vivo, barnyard grass (Echinochloa crus-galli); conditions: foliage application, 320 g/ha, three weeks after application
Method in brief: (§3)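 Plants were sown into sterilized diluvial soil under about 1.5 cm cover and kept in a greenhouse at 25° C. to 30° C. Fourteen days on, foliage received an even spray of the diluted emulsion. Herbicidal or crop effect was judged three weeks afterwards.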

[11] = test system: wild oat; test: Test Example 5: herbicidal effect by foliage application, plastic box (Table 20, symbol I); type: in vivo, wild oat (Avena fatua); conditions: foliage application, 320 g/ha, three weeks after application
Method in brief: as §3

[12] = test system: blackgrass; test: Test Example 5: herbicidal effect by foliage application, plastic box (Table 20, symbol J); type: in vivo, blackgrass (Alopecurus myosuroides); conditions: foliage application, 320 g/ha, three weeks after application
Method in brief: as §3

[13] = test system: Italian ryegrass; test: Test Example 5: herbicidal effect by foliage application, plastic box (Table 20, symbol K); type: in vivo, Italian ryegrass (Lolium multiflorum); conditions: foliage application, 320 g/ha, three weeks after application
Method in brief: as §3

[14] = test system: velvetleaf; test: Test Example 5: herbicidal effect by foliage application, plastic box (Table 20, symbol M); type: in vivo, velvetleaf (Abutilon theophrasti); conditions: foliage application, 320 g/ha, three weeks after application
Method in brief: as §3

[15] = test system: redroot pigweed; test: Test Example 5: herbicidal effect by foliage application, plastic box (Table 20, symbol N); type: in vivo, redroot pigweed (Amaranthus retroflexus); conditions: foliage application, 320 g/ha, three weeks after application
Method in brief: as §3

[16] = test system: persian speedwell; test: Test Example 5: herbicidal effect by foliage application, plastic box (Table 20, symbol R); type: in vivo, Persian speedwell (Veronica persica); conditions: foliage application, 320 g/ha, three weeks after application
Method in brief: as §3

CCCOc1ccccc1-c1sc2ccccc2c1-c1c(O)c(C)nn(C)c1=O [1-015]
herbicidal effect rating, A: late watergrass [1]: 3 (Herbicidal rate of 40% or more and less than 70%) | herbicidal effect on H (barnyard grass), rating 0-5 [2]: 5 (Herbicidal rate of 90% or more (almost completely withered)) | herbicidal effect on D (Chinese sprangletop), rating 0-5 [3]: 3 (Herbicidal rate of 40% or more and less than 70%) | herbicidal effect rating, F: southern crabgrass [4]: 3 (Herbicidal rate of 40% or more and less than 70%) | herbicidal effect rating, H: barnyard grass [5]: 4 (Herbicidal rate of 70% or more and less than 90%) | herbicidal effect rating, J: blackgrass [6]: 4 (Herbicidal rate of 70% or more and less than 90%) | herbicidal effect rating, N: redroot pigweed [7]: 0 (Herbicidal rate of 5% or less (almost no effect)) | herbicidal effect rating, O: lambsquarters [8]: 0 (Herbicidal rate of 5% or less (almost no effect)) | herbicidal effect rating, P: chickweed [9]: 3 (Herbicidal rate of 40% or more and less than 70%) | herbicidal effect grade, H: barnyard grass [10]: 3 (Herbicidal rate of 40% or more and less than 70%) | herbicidal effect grade, I: wild oat [11]: 3 (Herbicidal rate of 40% or more and less than 70%) | herbicidal effect grade, J: blackgrass [12]: 5 (Herbicidal rate of 90% or more (almost completely withered)) | herbicidal effect grade, K: Italian ryegrass [13]: 4 (Herbicidal rate of 70% or more and less than 90%) | herbicidal effect grade, M: velvetleaf [14]: 5 (Herbicidal rate of 90% or more (almost completely withered)) | herbicidal effect grade, N: redroot pigweed [15]: 3 (Herbicidal rate of 40% or more and less than 70%) | herbicidal effect grade, R: persian speedwell [16]: 5 (Herbicidal rate of 90% or more (almost completely withered))

CCCCCOc1ccc(-c2sc3ccccc3c2-c2c(O)c(C)nn(C)c2=O)cc1 [1-026]
herbicidal effect rating, A: late watergrass [1]: 2 (Herbicidal rate of 20% or more and less than 40%) | herbicidal effect on H (barnyard grass), rating 0-5 [2]: 4 (Herbicidal rate of 70% or more and less than 90%) | herbicidal effect on D (Chinese sprangletop), rating 0-5 [3]: 1 (Herbicidal rate of 5% or more and less than 20%) | herbicidal effect rating, F: southern crabgrass [4]: 0 (Herbicidal rate of 5% or less (almost no effect)) | herbicidal effect rating, H: barnyard grass [5]: 0 (Herbicidal rate of 5% or less (almost no effect)) | herbicidal effect rating, J: blackgrass [6]: 0 (Herbicidal rate of 5% or less (almost no effect)) | herbicidal effect rating, N: redroot pigweed [7]: 5 (Herbicidal rate of 90% or more (almost completely withered)) | herbicidal effect rating, O: lambsquarters [8]: 0 (Herbicidal rate of 5% or less (almost no effect)) | herbicidal effect rating, P: chickweed [9]: 2 (Herbicidal rate of 20% or more and less than 40%) | herbicidal effect grade, H: barnyard grass [10]: 3 (Herbicidal rate of 40% or more and less than 70%) | herbicidal effect grade, I: wild oat [11]: 2 (Herbicidal rate of 20% or more and less than 40%) | herbicidal effect grade, J: blackgrass [12]: 4 (Herbicidal rate of 70% or more and less than 90%) | herbicidal effect grade, K: Italian ryegrass [13]: 2 (Herbicidal rate of 20% or more and less than 40%) | herbicidal effect grade, M: velvetleaf [14]: 5 (Herbicidal rate of 90% or more (almost completely withered)) | herbicidal effect grade, N: redroot pigweed [15]: 5 (Herbicidal rate of 90% or more (almost completely withered)) | herbicidal effect grade, R: persian speedwell [16]: 5 (Herbicidal rate of 90% or more (almost completely withered))

Cc1nn(C)c(=O)c(-c2c(-c3ccccc3OC(F)(F)F)sc3ccccc23)c1O [1-030]
herbicidal effect rating, A: late watergrass [1]: 1 (Herbicidal rate of 5% or more and less than 20%) | herbicidal effect on H (barnyard grass), rating 0-5 [2]: 5 (Herbicidal rate of 90% or more (almost completely withered)) | herbicidal effect on D (Chinese sprangletop), rating 0-5 [3]: 3 (Herbicidal rate of 40% or more and less than 70%) | herbicidal effect rating, F: southern crabgrass [4]: 5 (Herbicidal rate of 90% or more (almost completely withered)) | herbicidal effect rating, H: barnyard grass [5]: 4 (Herbicidal rate of 70% or more and less than 90%) | herbicidal effect rating, J: blackgrass [6]: 1 (Herbicidal rate of 5% or more and less than 20%) | herbicidal effect rating, N: redroot pigweed [7]: 5 (Herbicidal rate of 90% or more (almost completely withered)) | herbicidal effect rating, O: lambsquarters [8]: 5 (Herbicidal rate of 90% or more (almost completely withered)) | herbicidal effect rating, P: chickweed [9]: 5 (Herbicidal rate of 90% or more (almost completely withered)) | herbicidal effect grade, H: barnyard grass [10]: 4 (Herbicidal rate of 70% or more and less than 90%) | herbicidal effect grade, I: wild oat [11]: 4 (Herbicidal rate of 70% or more and less than 90%) | herbicidal effect grade, J: blackgrass [12]: 5 (Herbicidal rate of 90% or more (almost completely withered)) | herbicidal effect grade, K: Italian ryegrass [13]: 4 (Herbicidal rate of 70% or more and less than 90%) | herbicidal effect grade, M: velvetleaf [14]: 5 (Herbicidal rate of 90% or more (almost completely withered)) | herbicidal effect grade, N: redroot pigweed [15]: 5 (Herbicidal rate of 90% or more (almost completely withered)) | herbicidal effect grade, R: persian speedwell [16]: 5 (Herbicidal rate of 90% or more (almost completely withered))

CC(=O)c1ccc(-c2sc3ccccc3c2-c2c(O)c(C)nn(C)c2=O)cc1 [1-041]
herbicidal effect rating, A: late watergrass [1]: 0 (Herbicidal rate of 5% or less (almost no effect)) | herbicidal effect on H (barnyard grass), rating 0-5 [2]: 1 (Herbicidal rate of 5% or more and less than 20%) | herbicidal effect on D (Chinese sprangletop), rating 0-5 [3]: 4 (Herbicidal rate of 70% or more and less than 90%) | herbicidal effect rating, F: southern crabgrass [4]: 2 (Herbicidal rate of 20% or more and less than 40%) | herbicidal effect rating, H: barnyard grass [5]: 0 (Herbicidal rate of 5% or less (almost no effect)) | herbicidal effect rating, J: blackgrass [6]: 0 (Herbicidal rate of 5% or less (almost no effect)) | herbicidal effect rating, N: redroot pigweed [7]: 4 (Herbicidal rate of 70% or more and less than 90%) | herbicidal effect rating, O: lambsquarters [8]: 5 (Herbicidal rate of 90% or more (almost completely withered)) | herbicidal effect rating, P: chickweed [9]: 0 (Herbicidal rate of 5% or less (almost no effect)) | herbicidal effect grade, H: barnyard grass [10]: 0 (Herbicidal rate of 5% or less (almost no effect)) | herbicidal effect grade, I: wild oat [11]: 1 (Herbicidal rate of 5% or more and less than 20%) | herbicidal effect grade, J: blackgrass [12]: 0 (Herbicidal rate of 5% or less (almost no effect)) | herbicidal effect grade, K: Italian ryegrass [13]: 5 (Herbicidal rate of 90% or more (almost completely withered)) | herbicidal effect grade, M: velvetleaf [14]: 5 (Herbicidal rate of 90% or more (almost completely withered)) | herbicidal effect grade, N: redroot pigweed [15]: 5 (Herbicidal rate of 90% or more (almost completely withered)) | herbicidal effect grade, R: persian speedwell [16]: 5 (Herbicidal rate of 90% or more (almost completely withered))

CCCC(=O)Oc1c(C)nn(C)c(=O)c1-c1c(-c2ccc(C(C)=NOC)cc2)sc2ccccc12 [1-044]
herbicidal effect rating, A: late watergrass [1]: 4 (Herbicidal rate of 70% or more and less than 90%) | herbicidal effect on H (barnyard grass), rating 0-5 [2]: 4 (Herbicidal rate of 70% or more and less than 90%) | herbicidal effect on D (Chinese sprangletop), rating 0-5 [3]: 4 (Herbicidal rate of 70% or more and less than 90%) | herbicidal effect rating, F: southern crabgrass [4]: 2 (Herbicidal rate of 20% or more and less than 40%) | herbicidal effect rating, H: barnyard grass [5]: 0 (Herbicidal rate of 5% or less (almost no effect)) | herbicidal effect rating, J: blackgrass [6]: 0 (Herbicidal rate of 5% or less (almost no effect)) | herbicidal effect rating, N: redroot pigweed [7]: 4 (Herbicidal rate of 70% or more and less than 90%) | herbicidal effect rating, O: lambsquarters [8]: 4 (Herbicidal rate of 70% or more and less than 90%) | herbicidal effect rating, P: chickweed [9]: 5 (Herbicidal rate of 90% or more (almost completely withered)) | herbicidal effect grade, H: barnyard grass [10]: 3 (Herbicidal rate of 40% or more and less than 70%) | herbicidal effect grade, I: wild oat [11]: 4 (Herbicidal rate of 70% or more and less than 90%) | herbicidal effect grade, J: blackgrass [12]: 3 (Herbicidal rate of 40% or more and less than 70%) | herbicidal effect grade, K: Italian ryegrass [13]: 4 (Herbicidal rate of 70% or more and less than 90%) | herbicidal effect grade, M: velvetleaf [14]: 5 (Herbicidal rate of 90% or more (almost completely withered)) | herbicidal effect grade, N: redroot pigweed [15]: 5 (Herbicidal rate of 90% or more (almost completely withered)) | herbicidal effect grade, R: persian speedwell [16]: 5 (Herbicidal rate of 90% or more (almost completely withered))
